Values belong to the compound of their own block, whether it stands above or below them.
Assays:
Hela = experiment: Cell proliferation inhibition assay (MTT); type: cell-based; conditions: Homo sapiens, 72 hours, read-out: Proliferation inhibitory activity IC50
SKBR-3 = experiment: Cell proliferation inhibition assay (MTT); type: cell-based; conditions: Homo sapiens, SK-BR-3, 72 hours, read-out: Proliferation inhibitory activity IC50
MM.1S = experiment: Cell proliferation inhibition assay (MTT); type: cell-based; conditions: Homo sapiens, MM1.S, 72 hours, read-out: Proliferation inhibitory activity IC50
Met(M1268T)(h) = Met(M1268T)(h) (Homo sapiens (Human), UniProt P08581, M1268T); experiment: Kinase inhibition assay (KinaseProfiler, 33P-ATP); type: biochemical; conditions: read-out: The percentage of the remaining active protein
cSRC(h) = cSRC(h) (Homo sapiens (Human), UniProt P12931); experiment: Kinase inhibition assay (KinaseProfiler, 33P-ATP); type: biochemical; conditions: 10 μM, read-out: The percentage of the remaining active protein
cSRC(h), sequence (P12931 whole entry, looked up): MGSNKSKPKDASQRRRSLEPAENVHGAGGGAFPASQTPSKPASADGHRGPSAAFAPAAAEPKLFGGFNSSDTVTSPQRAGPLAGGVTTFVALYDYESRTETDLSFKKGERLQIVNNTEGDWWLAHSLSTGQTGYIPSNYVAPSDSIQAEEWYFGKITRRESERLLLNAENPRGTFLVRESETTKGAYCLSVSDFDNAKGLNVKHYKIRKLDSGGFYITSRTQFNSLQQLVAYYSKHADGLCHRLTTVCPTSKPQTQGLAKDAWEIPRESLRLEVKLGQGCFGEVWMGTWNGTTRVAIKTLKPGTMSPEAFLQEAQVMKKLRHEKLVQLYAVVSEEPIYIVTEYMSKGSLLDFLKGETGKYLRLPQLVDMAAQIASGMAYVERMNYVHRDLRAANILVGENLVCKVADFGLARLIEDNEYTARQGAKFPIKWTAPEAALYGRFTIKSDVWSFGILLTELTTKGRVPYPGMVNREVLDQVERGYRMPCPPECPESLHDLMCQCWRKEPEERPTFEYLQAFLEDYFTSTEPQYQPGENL

ASK1(h) = ASK1(h) (Homo sapiens (Human), UniProt Q99683); experiment: Kinase inhibition assay (KinaseProfiler, 33P-ATP); type: biochemical; conditions: read-out: The percentage of the remaining active protein
PKR(h) = PKR(h) (Homo sapiens (Human), UniProt P19525); experiment: Kinase inhibition assay (KinaseProfiler, 33P-ATP); type: biochemical; conditions: read-out: The percentage of the remaining active protein
MRCKα(h) = MRCKα(h) (Homo sapiens (Human), UniProt Q5VT25); experiment: Kinase inhibition assay (KinaseProfiler, 33P-ATP); type: biochemical; conditions: read-out: The percentage of the remaining active protein
ATR/ATRIP(h) = ATR/ATRIP(h) (Homo sapiens (Human), UniProt Q13535); experiment: Kinase inhibition assay (KinaseProfiler, 33P-ATP); type: biochemical; conditions: read-out: The percentage of the remaining active protein
IRE1(h) = IRE1(h) (Homo sapiens (Human), UniProt O75460); experiment: Kinase inhibition assay (KinaseProfiler, 33P-ATP); type: biochemical; conditions: read-out: The percentage of the remaining active protein
IRE1(h), sequence (O75460 19-977): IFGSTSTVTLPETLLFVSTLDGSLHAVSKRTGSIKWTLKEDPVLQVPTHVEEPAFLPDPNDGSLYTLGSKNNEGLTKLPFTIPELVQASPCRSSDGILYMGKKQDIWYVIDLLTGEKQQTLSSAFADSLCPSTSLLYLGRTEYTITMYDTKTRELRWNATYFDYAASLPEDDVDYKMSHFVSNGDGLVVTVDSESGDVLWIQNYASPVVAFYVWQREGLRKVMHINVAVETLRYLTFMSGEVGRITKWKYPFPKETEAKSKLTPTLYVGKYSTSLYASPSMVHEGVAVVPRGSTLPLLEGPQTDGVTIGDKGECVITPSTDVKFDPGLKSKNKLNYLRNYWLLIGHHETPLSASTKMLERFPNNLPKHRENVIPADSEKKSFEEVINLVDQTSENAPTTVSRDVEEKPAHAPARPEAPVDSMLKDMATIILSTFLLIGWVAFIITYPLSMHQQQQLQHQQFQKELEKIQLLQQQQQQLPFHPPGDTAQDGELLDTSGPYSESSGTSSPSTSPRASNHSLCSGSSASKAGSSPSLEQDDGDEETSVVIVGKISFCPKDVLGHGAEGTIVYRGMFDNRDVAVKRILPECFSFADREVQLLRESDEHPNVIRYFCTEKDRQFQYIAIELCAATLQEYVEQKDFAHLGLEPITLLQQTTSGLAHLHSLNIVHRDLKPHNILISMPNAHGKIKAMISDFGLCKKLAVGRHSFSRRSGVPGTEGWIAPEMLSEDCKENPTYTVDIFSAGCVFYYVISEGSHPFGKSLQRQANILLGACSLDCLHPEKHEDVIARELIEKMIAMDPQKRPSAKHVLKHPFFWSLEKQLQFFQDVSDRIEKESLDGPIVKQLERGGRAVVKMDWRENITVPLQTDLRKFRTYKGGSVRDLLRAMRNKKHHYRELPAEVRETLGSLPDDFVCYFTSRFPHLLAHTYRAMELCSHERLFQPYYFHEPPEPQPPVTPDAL

ACK1 = ACK1 (Homo sapiens (Human), UniProt Q07912); experiment: Kinase inhibition assay (KinaseProfiler, 33P-ATP); type: biochemical; conditions: ACK1(h), read-out: The percentage of the remaining active protein
ZIPK(h) = ZIPK(h) (Homo sapiens (Human), UniProt O43293); experiment: Kinase inhibition assay (KinaseProfiler, 33P-ATP); type: biochemical; conditions: read-out: The percentage of the remaining active protein
JAK1 = JAK1 (Homo sapiens (Human), UniProt P23458); experiment: Kinase inhibition assay (KinaseProfiler, 33P-ATP); type: biochemical; conditions: JAK1(h), read-out: The percentage of the remaining active protein
JAK1, sequence (P23458 whole entry): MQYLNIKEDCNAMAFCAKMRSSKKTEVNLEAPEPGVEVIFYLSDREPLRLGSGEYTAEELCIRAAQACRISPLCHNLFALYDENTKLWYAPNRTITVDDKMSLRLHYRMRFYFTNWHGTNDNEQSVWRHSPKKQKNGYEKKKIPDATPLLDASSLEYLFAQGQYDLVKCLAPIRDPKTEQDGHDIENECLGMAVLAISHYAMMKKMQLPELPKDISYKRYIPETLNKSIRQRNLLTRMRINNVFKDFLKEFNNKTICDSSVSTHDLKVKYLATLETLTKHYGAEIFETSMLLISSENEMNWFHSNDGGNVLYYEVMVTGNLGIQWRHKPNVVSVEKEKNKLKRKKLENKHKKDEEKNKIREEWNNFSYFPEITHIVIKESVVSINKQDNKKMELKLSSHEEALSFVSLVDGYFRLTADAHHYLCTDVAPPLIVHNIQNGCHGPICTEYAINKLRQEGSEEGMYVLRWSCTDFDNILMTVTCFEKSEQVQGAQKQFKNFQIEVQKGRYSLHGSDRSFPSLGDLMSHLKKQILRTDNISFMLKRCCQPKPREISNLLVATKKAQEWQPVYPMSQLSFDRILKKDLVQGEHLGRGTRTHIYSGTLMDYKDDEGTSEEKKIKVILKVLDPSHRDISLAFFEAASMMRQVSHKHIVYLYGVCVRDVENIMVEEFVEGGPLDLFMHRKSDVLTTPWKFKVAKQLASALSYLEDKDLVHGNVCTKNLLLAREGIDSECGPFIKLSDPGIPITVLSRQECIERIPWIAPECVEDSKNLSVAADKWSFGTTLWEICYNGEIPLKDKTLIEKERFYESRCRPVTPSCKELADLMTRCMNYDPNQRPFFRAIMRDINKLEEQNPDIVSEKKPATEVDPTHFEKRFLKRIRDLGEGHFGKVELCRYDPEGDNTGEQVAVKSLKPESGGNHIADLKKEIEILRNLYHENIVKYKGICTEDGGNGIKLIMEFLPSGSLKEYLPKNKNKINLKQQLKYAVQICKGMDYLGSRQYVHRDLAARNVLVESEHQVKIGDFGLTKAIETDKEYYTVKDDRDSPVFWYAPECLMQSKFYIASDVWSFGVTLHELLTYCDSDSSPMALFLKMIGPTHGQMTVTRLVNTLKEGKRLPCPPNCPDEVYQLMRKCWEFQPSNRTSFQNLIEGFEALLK

PKCη(h) = PKCη(h) (Homo sapiens (Human), UniProt P24723); experiment: Kinase inhibition assay (KinaseProfiler, 33P-ATP); type: biochemical; conditions: read-out: The percentage of the remaining active protein
PKCη(h), sequence (P24723 whole entry): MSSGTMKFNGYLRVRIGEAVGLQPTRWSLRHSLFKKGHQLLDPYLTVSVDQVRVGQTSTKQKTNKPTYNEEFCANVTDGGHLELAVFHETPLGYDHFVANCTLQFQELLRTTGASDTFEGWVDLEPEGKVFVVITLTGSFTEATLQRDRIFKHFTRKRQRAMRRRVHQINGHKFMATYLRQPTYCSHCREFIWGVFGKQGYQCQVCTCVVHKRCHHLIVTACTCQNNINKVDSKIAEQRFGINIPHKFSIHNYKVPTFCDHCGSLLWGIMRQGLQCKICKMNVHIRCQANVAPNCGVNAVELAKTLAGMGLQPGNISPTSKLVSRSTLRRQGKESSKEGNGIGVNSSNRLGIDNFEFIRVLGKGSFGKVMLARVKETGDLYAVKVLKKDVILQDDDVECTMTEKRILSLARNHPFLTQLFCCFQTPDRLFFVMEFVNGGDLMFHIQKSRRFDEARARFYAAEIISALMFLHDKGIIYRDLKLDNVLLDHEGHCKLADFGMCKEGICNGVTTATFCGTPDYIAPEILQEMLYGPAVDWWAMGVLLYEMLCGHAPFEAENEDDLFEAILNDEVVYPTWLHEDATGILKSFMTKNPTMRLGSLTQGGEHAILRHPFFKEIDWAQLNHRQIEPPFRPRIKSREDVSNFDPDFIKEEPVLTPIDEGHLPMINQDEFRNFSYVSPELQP

CLK4(h) = CLK4(h) (Homo sapiens (Human), UniProt Q9HAZ1); experiment: Kinase inhibition assay (KinaseProfiler, 33P-ATP); type: biochemical; conditions: read-out: The percentage of the remaining active protein
CK2α2(h) = CK2α2(h) (Homo sapiens (Human), UniProt P19784); experiment: Kinase inhibition assay (KinaseProfiler, 33P-ATP); type: biochemical; conditions: read-out: The percentage of the remaining active protein
CK2α2(h), sequence (P19784 whole entry): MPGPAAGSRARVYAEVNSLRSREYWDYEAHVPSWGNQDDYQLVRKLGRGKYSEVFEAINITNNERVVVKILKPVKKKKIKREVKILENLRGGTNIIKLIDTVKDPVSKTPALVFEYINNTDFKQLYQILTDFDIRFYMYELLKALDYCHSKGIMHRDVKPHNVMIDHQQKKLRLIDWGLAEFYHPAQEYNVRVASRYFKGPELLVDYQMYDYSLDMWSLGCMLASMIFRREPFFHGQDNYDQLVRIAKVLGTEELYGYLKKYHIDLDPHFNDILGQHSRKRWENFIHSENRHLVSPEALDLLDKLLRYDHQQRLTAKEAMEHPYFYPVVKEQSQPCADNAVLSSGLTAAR

cKit(h) = cKit(h) (Homo sapiens (Human), UniProt P10721); experiment: Kinase inhibition assay (KinaseProfiler, 33P-ATP); type: biochemical; conditions: 10 μM, read-out: The percentage of the remaining active protein
Pyk2 = Pyk2 (Homo sapiens (Human), UniProt Q14289); experiment: Kinase inhibition assay (KinaseProfiler, 33P-ATP); type: biochemical; conditions: Pyk2(h), read-out: The percentage of the remaining active protein
Pyk2, sequence (Q14289 whole entry): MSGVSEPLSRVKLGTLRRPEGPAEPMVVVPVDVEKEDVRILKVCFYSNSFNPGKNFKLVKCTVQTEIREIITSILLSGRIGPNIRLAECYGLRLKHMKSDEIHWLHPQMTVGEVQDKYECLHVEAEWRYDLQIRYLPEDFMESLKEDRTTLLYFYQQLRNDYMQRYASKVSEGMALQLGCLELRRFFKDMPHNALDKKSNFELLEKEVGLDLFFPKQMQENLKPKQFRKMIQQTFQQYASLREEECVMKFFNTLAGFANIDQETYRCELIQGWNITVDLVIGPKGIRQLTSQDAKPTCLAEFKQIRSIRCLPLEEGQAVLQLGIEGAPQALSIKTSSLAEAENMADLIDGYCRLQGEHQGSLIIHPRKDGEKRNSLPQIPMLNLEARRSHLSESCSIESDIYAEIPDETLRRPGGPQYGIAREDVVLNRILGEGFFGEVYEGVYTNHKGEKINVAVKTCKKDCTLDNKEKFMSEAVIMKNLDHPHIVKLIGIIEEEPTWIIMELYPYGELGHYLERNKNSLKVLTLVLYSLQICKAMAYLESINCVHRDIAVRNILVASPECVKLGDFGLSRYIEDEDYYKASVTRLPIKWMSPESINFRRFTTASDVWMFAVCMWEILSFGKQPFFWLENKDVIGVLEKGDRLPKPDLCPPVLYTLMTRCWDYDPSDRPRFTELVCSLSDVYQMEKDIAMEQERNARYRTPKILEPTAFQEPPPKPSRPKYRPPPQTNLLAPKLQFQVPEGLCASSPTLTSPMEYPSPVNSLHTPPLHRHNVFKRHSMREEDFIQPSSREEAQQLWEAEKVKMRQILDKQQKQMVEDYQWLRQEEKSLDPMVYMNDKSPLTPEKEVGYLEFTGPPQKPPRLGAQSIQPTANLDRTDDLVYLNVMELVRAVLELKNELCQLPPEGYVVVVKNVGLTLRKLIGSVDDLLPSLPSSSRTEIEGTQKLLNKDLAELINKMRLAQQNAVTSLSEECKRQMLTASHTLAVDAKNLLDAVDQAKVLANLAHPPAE

MDA-MB-415 = experiment: Cell proliferation inhibition assay (MTT); type: cell-based; conditions: Homo sapiens, 72 hours, read-out: Proliferation inhibitory activity IC50
IGF-1R(h) = IGF-1R(h) (Homo sapiens (Human), UniProt P08069); experiment: Kinase inhibition assay (KinaseProfiler, 33P-ATP); type: biochemical; conditions: read-out: The percentage of the remaining active protein
MST4(h) = MST4(h) (Homo sapiens (Human), UniProt Q9P289); experiment: Kinase inhibition assay (KinaseProfiler, 33P-ATP); type: biochemical; conditions: read-out: The percentage of the remaining active protein
SAPK2a = SAPK2a (Homo sapiens (Human), UniProt Q16539); experiment: Kinase inhibition assay (KinaseProfiler, 33P-ATP); type: biochemical; conditions: SAPK2a(h), read-out: The percentage of the remaining active protein
SAPK2a(T106M)(h) = SAPK2a(T106M)(h) (Homo sapiens (Human), UniProt Q16539, T106M); experiment: Kinase inhibition assay (KinaseProfiler, 33P-ATP); type: biochemical; conditions: read-out: The percentage of the remaining active protein
SAPK2a(T106M)(h), sequence (Q16539 whole entry T106M): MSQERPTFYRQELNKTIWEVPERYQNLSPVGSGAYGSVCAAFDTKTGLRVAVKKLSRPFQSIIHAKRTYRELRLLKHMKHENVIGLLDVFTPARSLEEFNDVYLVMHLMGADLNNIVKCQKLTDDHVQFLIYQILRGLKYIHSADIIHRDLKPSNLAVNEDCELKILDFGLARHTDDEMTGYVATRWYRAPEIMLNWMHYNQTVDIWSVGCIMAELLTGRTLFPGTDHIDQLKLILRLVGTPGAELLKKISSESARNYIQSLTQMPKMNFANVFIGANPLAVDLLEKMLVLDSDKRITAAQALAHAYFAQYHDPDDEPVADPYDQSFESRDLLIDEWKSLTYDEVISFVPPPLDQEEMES

CaMKIV(h) = CaMKIV(h) (Homo sapiens (Human), UniProt Q16566); experiment: Kinase inhibition assay (KinaseProfiler, 33P-ATP); type: biochemical; conditions: read-out: The percentage of the remaining active protein

- IC50 (Hela): 7.23 µM
- IC50 (SKBR-3): 1260 nM
- IC50 (MM.1S): 2380 nM
SMILES: Cc1ccc(NC(=O)c2cccc(C(F)(F)F)c2)cc1C#Cc1nn(C2CCN(C)CC2)c2ncnc(N)c12 [Compound 31]

- remaining activity at 10 µM (Met(M1268T)(h)): 136%
- remaining activity at 10 µM (cSRC(h)): 0%
- remaining activity at 10 µM (ASK1(h)): 127%
- remaining activity at 10 µM (PKR(h)): 75%
- remaining activity at 10 µM (MRCKα(h)): 101%
- remaining activity at 10 µM (ATR/ATRIP(h)): 94%
- remaining activity at 10 µM (IRE1(h)): 94%
- remaining activity at 10 µM (ACK1): 4%
- remaining activity at 10 µM (ZIPK(h)): 110%
- remaining activity at 10 µM (JAK1): 3%
- remaining activity at 10 µM (PKCη(h)): 72%
- remaining activity at 10 µM (CLK4(h)): 58%
- remaining activity at 10 µM (CK2α2(h)): 92%
- remaining activity at 10 µM (cKit(h)): 89%
- remaining activity at 10 µM (Pyk2): 5%
- IC50 (MDA-MB-415): ~10 µM
- remaining activity at 10 µM (IGF-1R(h)): 66%
- remaining activity at 10 µM (MST4(h)): 73%
- remaining activity at 10 µM (SAPK2a): 3%
- remaining activity at 10 µM (SAPK2a(T106M)(h)): 88%
- remaining activity at 10 µM (CaMKIV(h)): 93%
SMILES: Cc1ccc(NC(=O)c2ccc(C)c(C(F)(F)F)c2)cc1C#Cc1nn([C@H]2CC[C@H](O)CC2)c2ncnc(N)c12 [Compound 93]

— US10266537B2, “3-acetylenyl-pyrazole-pyrimidine derivative, and preparation method therefor and uses thereof” (Si Chuan University, priority 2015, dated 2019)
